Assay results: patent US20100093811A1 (priority 2007, published 2010)
Where a name gives a salt, the structure may show the parent alone. Read-outs that look alike come from different tables or passages of the source.

Legend:
[1] = biological target: wild-type HIV-1 protease (Human immunodeficiency virus type 1 group M subtype B, UniProt P04585); assay: Assay for inhibition of microbial expressed HIV protease; format: biochemical
Procedure, shortened: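 E. coli-expressed protease (5 pM) preincubated with inhibitor 30 min at room temperature in 50 mM sodium acetate pH 5.5, 100 mM NaCl, 0.1% BSA. Substrate Val-Ser-Gln-Asn-(betanapthyl)Ala-Pro-Ile-Val at 440 micromolar, 1 h at 30° C; acid-quenched, product peak area by C18 HPLC gives inhibition.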

[2] = system: acute HIV infection of T-lymphoid cells; assay: Assay for inhibition of HIV replication (spread assay); format: cell-based, HIV-1; settings: read-out: Spread - IC95
Description: • Assay for Inhibition of HIV Replication
Assays for the inhibition of acute HIV infection of T-lymphoid cells were conducted in accordance with Vacca, J. P. et al., Proc. Natl. Acad. Sci. USA 1994, 91: 4096.

[3] = wild-type HIV-1 protease expressed in E. coli, peptide substrate, pH 5.5, read-out: Enzyme Inhibition - IC50
[4] = Human immunodeficiency virus 1, T-lymphoid

Row | Structure (SMILES) | IC50 [1, 3] [nM] | IC95 [2, 4] [nM] | IC95 ([2]; inhibition of HIV-1 replication, 10% FBS) [nM] | IC50 [1] [nM]
1 | COC(=O)N[C@@H](Cc1ccccc1Cl)C(=O)N[C@@H](C)CCC[C@@H](CN)N(CCC(C)C)S(=O)(=O)c1ccc(N)cc1 [Example D4, N-{(1S,5S)-6-amino-5-[[(4-aminophenyl)sulfonyl](3-methylbutyl)amino]-1-methylhexyl}-2-chloro-Nα-(methoxycarbonyl)-L-phenylalaninamide] | > 3 | 270 |  | 
2 | CCN([C@H](CO)CCC[C@H](C)NC(=O)[C@H](Cc1ccccc1Cl)NC(=O)OC)S(=O)(=O)c1ccc(CO)cc1 [Example G9, 2-chloro-N-[(1S,5S)-5-(ethyl{[4-(hydroxymethyl)phenyl]sulfonyl}amino)-6-hydroxy-1-methylhexyl]-Nα-(methoxycarbonyl)-L-phenylalaninamide] | 0.629 | 102 |  | 
3 | CCCN([C@H](CO)CCC[C@@H](NC(=O)[C@H](Cc1ccccc1Cl)NC(=O)OC)C(F)(F)F)S(=O)(=O)c1ccc(CO)cc1 [Example J43, 2-chloro-N-[(1R,5S)-6-hydroxy-5-[{[4-(hydroxymethyl)phenyl]sulfonyl}(propyl)amino]-1-(trifluoromethyl)hexyl]-Nα-(methoxycarbonyl)-L-phenylalaninamide] | 0.126 | 116 |  | 
4 | CC(C)N([C@H](CO)CCCC(C)(C)NC(=O)[C@@H](N)C(c1ccccc1)c1ccccc1)S(=O)(=O)c1ccc(N)cc1 [Example L2, N-{(5S)-5-[[(4-aminophenyl)sulfonyl](isopropyl)amino]-6-hydroxy-1,1-dimethylhexyl}-β-phenyl-L-phenylalaninamide] | 0.018 | 23 |  | 
5 | CC(C)CCN([C@@H](CCCCNC(=O)[C@@H](N)C(c1ccccc1)c1ccccc1)C(C)O)S(=O)(=O)c1ccc(N)cc1 (mixture of isomers) [Example A1, (2S)-2-amino-N-{5-[[(4-aminophenyl)sulfonyl]-(3-methylbutyl)amino]-6-hydroxyheptyl}-3,3-diphenylpropanamide] | 0.43 | 140 |  | 
6 | COC(=O)N[C@H](C(=O)N[C@@H](C)CCC[C@@H](CO)N(CCC(C)C)S(=O)(=O)c1ccc(N)cc1)C(c1ccccc1)c1ccccc1 [D1(R), N-{(1S,5S)-5-[[(4-aminohenyl)sulfonyl](3-methylbutyl)amino]-6-hydroxy-1-methylhexyl}-Nα-(methoxycarbonyl)-β-phenyl-L-phenylalaninamide] | 0.386 |  | 98 | 
7 | COC(=O)N[C@H](C(=O)N[C@@H](C)CCC[C@@H](CO)N(CCCF)S(=O)(=O)c1ccc(N)cc1)C(c1ccccc1)c1ccccc1 [Example F4, N-{(1S,5S)-5-[[(4-aminophenyl)sulfonyl](3-fluoropropyl)amino]-6-hydroxy-1-methylhexyl}-Nα-(methoxycarbonyl)-β-phenyl-L-phenylalaninamide] | 0.055 | 65 |  | 
8 | CC[C@@H](CCC[C@@H](CO)N(CC(C)C)S(=O)(=O)c1ccc(CO)cc1)NC(=O)[C@@H](NC(=O)OC)C(c1ccccc1)c1ccccc1 [Example J19, N-{(1S,5S)-1-ethyl-6-hydroxy-5-[{[4-(hydroxymethyl)phenyl]sulfonyl}(isobutyl)amino]hexyl]-Nα-(methoxycarbonyl)-β-phenyl-L-phenylalaninamide] | 0.034 | 11 |  | 
9 | COC(=O)N[C@H](C(=O)N[C@@H](C)CCC[C@@H](CO)N(C(C)C)S(=O)(=O)c1ccc(C(C)=O)cc1)C(c1ccccc1)c1ccccc1 [Example K5, N-{(1S,5S)-5-[[(4-acetylphenyl)sulfonyl](isopropyl)amino]-6-bydroxy-1-methylhexyl}-Nα-(methoxycarbonyl)-β-phenyl-L-phenylalaninamide] | 0.284 | 41 |  | 
10 | COC(=O)N[C@@H](Cc1ccccc1Cl)C(=O)N[C@H](CCC[C@@H](CO)N(CCC(C)C)S(=O)(=O)c1ccc2ncsc2c1)C1CC1 [Example E8, N-{(1R,5S)-5-[(1,3-benzothiazol-6-ylsulfonyl)(3-methylbutyl)amino]-1-cyclopropyl-6-hydroxyhexyl}-2-chloro-Nα-(methoxycarbonyl)-L-phenylalaninamide] | 1.4 | 195 |  | 
11 | COC(=O)N[C@H](C(=O)N[C@H](CCC[C@@H](CO)N(CCC(C)C)S(=O)(=O)c1ccc(CO)cc1)C(C)C)C(c1ccccc1)c1ccccc1 [Example J9, N-{(1R,5S)-6-hydroxy-5-[{[4-(hydroxymethyl)phenyl]sulfonyl}(3-methylbutyl)amino]-1-isopropylhexyl}-Nα-(methoxycarbonyl)-β-phenyl-L-phenylalaninamide] | 0.069 | 23 |  | 
12 | CC[C@@H](CCC[C@@H](CO)N(CCC(C)C)S(=O)(=O)c1ccc(CO)cc1)NC(=O)[C@@H](N)C(c1ccccc1)c1ccccc1 [Example J31, N-{(1S,5S)-1-ethyl-6-hydroxy-5-[{[4-(hydroxymethyl)phenyl]sulfonyl}(3-methylbutyl)amino]hexyl}-β-phenyl-L-phenylalaninamide hydrochloride] |  | 23 |  | 0.01
13 | CC[C@@H](CCC[C@@H](CO)N(CC(C)C)S(=O)(=O)c1ccc(CO)cc1)NC(=O)[C@@H](N)C(c1ccccc1)c1ccccc1 [Example J32, N-{(1S,5S)-1-ethyl-6-hydroxy-5-[{[4-(hydroxymethyl)phenyl]sulfonyl}(isobutyl)amino]hexyl}-β-phenyl-L-phenylalaninamide hydrochloride] |  | 25 |  | 0.01
14 | COC(=O)N[C@H](C(=O)NC1(CCCC(CO)N(CCC(C)C)S(=O)(=O)c2ccc(N)cc2)CCC1)C(c1ccccc1)c1ccccc1 (stereo partly drawn) [Example L3, N-(1-{4-[[(4-aminophenyl)sulfonyl](3-methylbutyl)amino]-5-hydroxypentyl}cyclobutyl)-Nα-(methoxycarbonyl)-β-phenyl-L-phenylalaninamide] | 0.234 | 471 |  | 
15 | CCN([C@H](CO)CCC[C@@H](NC(=O)[C@@H](NC(=O)OC)C(c1ccccc1)c1ccccc1)C1CC1)S(=O)(=O)c1ccc(CO)cc1 [Example I5, N-[(1R,5S)-1-cyclopropyl-5-(ethyl{[4-(hydroxymethyl)phenyl]sulfonyl}amino)-6-hydroxyhexyl]-Nα-(methoxycarbonyl)-β-phenyl-L-phenylalaninamide] | 0.011 | 85 |  | 
16 | CN[C@H](C(=O)N[C@H](CCC[C@@H](CO)N(CC(C)C)S(=O)(=O)c1ccc(CO)cc1)C1CC1)C(c1ccccc1)c1ccccc1 [Example J25, N-{(1R,55)-1-cyclopropyl-6-hydroxy-5-[{[4-(hydroxymethyl)phenyl]sulfonyl}(isobutyl)amino]hexyl}-Nα-methyl-β-phenyl-L-phenylalaninamide] | 0.08 | 17 |  | 
17 | COC(=O)N[C@H](C(=O)N[C@H](CCC[C@@H](CO)N(CCC(C)C)S(=O)(=O)c1ccc(CO)cc1)C(F)(F)F)C(c1ccccc1)c1ccccc1 [Example J2, N-[(1R,55S)-6-hydroxy-5-[{[4-(hydroxymethyl)phenyl]sulfonyl}(3-methylbutyl)amino]-1-(trifluoromethyl)hexyl]-Nα-(methoxycarbonyl)-β-phenyl-L-phenylalaninamide] | 0.012 | 8 |  | 
18 | COC(=O)NC(Cc1cccc(Cl)c1Cl)C(=O)N[C@@H](C)CCC[C@@H](CO)N(C(C)C)S(=O)(=O)c1ccc(CO)cc1 (stereo partly drawn) [Example J45, 2,3-dichloro-N-{(1S,5S)-6-hydroxy-5-[{[4-(hydroxymethyl)phenyl]sulfonyl}(isopropyl)amino]-1-methylhexyl}-Nα-(methoxycarbonyl)phenylalaninamide] | 0.041 | 80 |  | 
